Results published in the supplement of paper PMC10307832.

What was measured:
Test in all cases: relative viability (nuclei count vs DMSO), 5 days (fraction); higher = more cells survive
kb NB 142-70 + AZD7762 = compound: C1CSC2=C(C(=O)N1)SC3=C2C=C(C=C3)O [kb NB 142-70] + NC(=O)Nc1cc(-c2cccc(F)c2)sc1C(=O)N[C@H]1CCCNC1 [AZD7762] (partner 0.2 µM)
How it was run: (§1)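 Values are medians from duplicate plates. Each reflects relative viability, defined as the nuclei count of treated wells over that of vehicle wells. Lung cancer cell lines in 1536-well plates were pin-tool dosed one day after seeding with one drug alone or with a fixed anchor-drug dose plus five library-drug doses (not always all listed) in √10 steps, then fixed, stained and imaged at 4× after 5 days.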

[1] = compound: C1CSC2=C(C(=O)N1)SC3=C2C=C(C=C3)O [kb NB 142-70] + CC(=O)Nc1cccc(-n2c(=O)n(C3CC3)c(=O)c3c(Nc4ccc(I)cc4F)n(C)c(=O)c(C)c32)c1 [Trametinib] (partner 0.02 µM)
How it was run: as §1

[2] = compound: NCC(=O)Nc1ccc(-n2nc(C(F)(F)F)cc2-c2ccc3c(ccc4ccccc43)c2)cc1 + COc1cc2c(Oc3ccc(NC(=O)C4(C(=O)Nc5ccc(F)cc5)CC4)cc3F)ccnc2cc1OCCCN1CCOCC1 [Foretinib] (partner 0.25 µM)
How it was run: as §1

| Cell Line | relative viability (kb NB 142-70 + AZD7762; first compound 0.1 µM) | relative viability (kb NB 142-70 + AZD7762; first compound 1 µM) | relative viability (kb NB 142-70 + AZD7762; first compound 3.162 µM) | relative viability ([1]; first compound 0.1 µM) | relative viability ([1]; first compound 1 µM) | relative viability ([1]; first compound 3.162 µM) | relative viability ([2]; first compound 0.02 µM) | relative viability ([2]; first compound 0.06325 µM) | relative viability ([2]; first compound 0.6325 µM) | relative viability ([2]; first compound 2 µM) | relative viability ([2]; first compound 0.2 µM) |
| --- | --- | --- | --- | --- | --- | --- | --- | --- | --- | --- | --- |
| NCI-H1648 | 0.585 | 0.811 | 0.933 | 0.459 | 0.551 | 0.417 | – | – | – | – | – |
| NCI-H1650 | – | – | – | 0.557 | 0.507 | 0.761 | 1.42 | 1.25 | 1.43 | 1.19 | – |
| NCI-H1651 | 0.488 | 0.448 | 0.547 | 0.786 | 0.858 | 0.834 | 0.758 | 0.823 | 0.789 | 0.803 | 0.805 |
| NCI-H1666 | 0.879 | 0.714 | 0.89 | 0.842 | 0.934 | 0.776 | 0.975 | 1.01 | 0.963 | 0.932 | 0.998 |
| NCI-H1703 | 0.125 | 0.134 | 0.134 | – | – | – | 0.32 | 0.289 | 0.323 | 0.34 | 0.412 |
| NCI-H1734 | 0.585 | 0.589 | 0.507 | 0.717 | 0.633 | 0.531 | 0.795 | 0.875 | 0.766 | 0.9 | 0.919 |
| NCI-H1755 | 0.436 | 0.447 | 0.431 | 0.814 | 0.742 | 0.836 | 0.928 | 0.882 | 0.921 | 0.905 | 0.947 |
| NCI-H1792 | 0.803 | 0.907 | 0.857 | 0.478 | 0.567 | 0.579 | – | – | – | – | – |
| NCI-H1793 | 0.6 | 0.667 | 0.615 | 0.399 | 0.542 | 0.463 | 0.622 | 0.661 | 0.6 | 0.92 | 0.562 |
| NCI-H1915 | 0.679 | 0.821 | 0.851 | 0.332 | 0.331 | 0.37 | 1.12 | 1.12 | 1.06 | 1.11 | 1.09 |
| NCI-H1944 | 0.492 | 0.514 | 0.6 | 0.417 | 0.444 | 0.442 | 0.795 | 0.841 | 0.888 | 1.01 | 0.827 |
| NCI-H1975 | 0.652 | 0.748 | 0.7 | 0.407 | 0.339 | 0.248 | 1.03 | 0.94 | 1 | 0.984 | 1.08 |
| NCI-H2009 | – | – | – | 0.284 | 0.29 | 0.263 | 1.27 | 1.19 | 1.14 | 1.25 | 1.38 |
| NCI-H2023 | – | – | – | 0.52 | 0.559 | 0.566 | 1.01 | 0.905 | 0.731 | 0.859 | 0.947 |
| NCI-H2228 | – | – | – | 0.696 | 0.497 | 0.235 | 1.05 | 0.974 | 0.97 | 0.972 | 0.889 |
| SK-LU-1 | – | – | – | 0.486 | 0.548 | 0.27 | 0.845 | 0.843 | 0.785 | 0.85 | 0.97 |
| SK-MES-1 | – | – | – | 0.547 | 0.631 | 0.714 | 0.955 | 0.896 | 0.959 | 1.06 | 0.995 |
| SW 1573 | – | – | – | 0.541 | 0.475 | 0.418 | 0.986 | 0.867 | 0.895 | 0.905 | 0.87 |
